Drawing on patent US9796719B2, “Compounds and pharmaceutical compositions thereof for the treatment of inflammatory disorders” (GALAPAGOS NV, priority 2013, dated 2017), this text covers IC50 for 23 compounds.

In general, IC50 refers to the concentration needed to halve the response being measured. A high value points to weaker potency.

Test [1] deals with T1, hENPP2 (UniProtKB/SwissProt Sequence ref Q13822) (Homo sapiens (Human), UniProt Q13822). Briefly: LPC hENPP2 assay (choline release, LPC as substrate). It is filed as biochemical. The gist of the method:
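Detection is coupled: choline oxidase produces peroxide, which HRP uses to form quinoneimine dye from TOOS and 4-aminoantipyrine, read at 555 nm. The reaction is stopped with 20 mM EGTA in the developer mix, then incubated 30 min at room temperature; inhibition lowers signal.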

Test [2] concerns the target T1, hENPP2. Description: FS3 hENPP2 assay (fluorogenic substrate FS-3). The class given is biochemical. The note with it: hENPP2, FS-3 as substrate. How it is done: Compound IC50 values are determined in a fluorescent hENPP2 (UniProtKB/SwissProt Sequence ref Q13822) biochemical assay using the fluorogenic autotaxin substrate FS-3 as substrate. FS-3 is a doubly labeled analog of LPC wherein the fluorophore is quenched through intramolecular energy transfer. Without hENPP2, the emission of the probe is quenched. If the substrate is hydrolyzed by hENPP2, the emission of the probe is not quenched anymore resulting in a fluorescence increase. Inhibition of hENPP2 by compounds will result in a decrease of the signal.
10 μL of a dilution series of compound, starting from 20 μM highest concentration, ⅕ dilution, is added to the wells. hENPP2 is used at a final concentration of 0.4 μg/mL or 0.64 μg/mL (it will be appreciated by the skilled person that the potency read out is independent of the enzyme concentration). The enzyme is diluted in 50 mM Tris-HCl pH 8.0, 250 mM NaCl, 5 mM KCl, 1 mM MgCl2, 1 mM CaCl2, 0.1% fatty acid free BSA in a total volume of 20 μL. Enzyme mixture is added to compounds and the resulting mixture is incubated for 30 min at room temperature under shaking. The reaction is started by the addition of 20 μL of 0.75 μM FS-3 diluted in the same buffer as described above and the mixture is incubated at 30° C. for 30 min. Fluorescence is read on the Envision (Excitation 485 nm, emission 520 nm).

Turning to `CCc1nc2ccc(N3CCC(C(=O)O)CC3)nn2c1N(C)c1nc(-c2ccc(F)cc2)cs1` [Compound 96, 1-(2-ethyl-3-((4-(4-fluorophenyl)thiazol-2-yl)(methyl)amino)imidazo[1,2-b]pyridazin-6-yl)piperidine-4-carboxylic acid], the half-inhibitory concentration (IC50) against hENPP2 [1] was above 1000 nM; against hENPP2 [2] it was 0.01 to 25 nM.
`CCc1nc2ccc(N3CCC(N4CCOCC4)C3)nn2c1N(C)c1nc(-c2ccc(F)cc2)cs1` (stereo not shown) [Cpd 147, N-(2-ethyl-6-(3-morpholino-pyrrolidin-1-yl)imidazo[1,2-b]pyridazin-3-yl)-4-(4-fluorophenyl)-N-methylthiazol-2-amine]: the half-maximal inhibitory concentration (IC50) against hENPP2 [1] lay within 100 to 500 nM; on hENPP2 [2], 0.01 to 25 nM.
Taken in the same sequence, the figures for `CCc1nc2cnc(C3CCNCC3)cn2c1N(C)c1nc(-c2ccc(F)cc2)c(C#N)s1` [Cpd 22, 2-((2-ethyl-6-(piperidin-4-yl)imidazo[1,2-a]pyrazin-3-yl)(methyl)amino)-4-(4-fluorophenyl) thiazole-5-carbonitrile] were above 1000 nM and 25 to 50 nM.
With `CCc1nc2cnc(N3CCN(CC(=O)N4CC(F)C4)CC3)cn2c1N(C)c1nc(-c2ccc(F)cc2)c(C#N)s1` [Cpd 11, 2-((2-ethyl-6-(4-(2-(3-fluoroazetidin-1-yl)-2-oxoethyl)piperazin-1-yl)imidazo[1,2-a]pyrazin-3-yl)(methyl)amino)-4-(4-fluorophenyl) thiazole-5-carbonitrile], the half-inhibitory concentration (IC50) against hENPP2 [1] lay within 100 to 500 nM; against hENPP2 [2], 0.01 to 25 nM.
For `CCc1nc2ccc(N3CCC(=O)C3)nn2c1N(C)c1nc(-c2ccc(F)cc2)c(C#N)s1` [Compound 172, 2-((2-ethyl-6-(3-oxopyrrolidin-1-yl)imidazo[1,2-b]pyridazin-3-yl)(methyl)amino)-4-(4-fluorophenyl)thiazole-5-carbonitrile], the IC50 was in the range of 100 to 500 nM on hENPP2 [1] and 0.01 to 25 nM against hENPP2 [2].
Taken in the same sequence, the figures for `CCc1nc2ccc(N3CC4CN(C(=O)OC(C)(C)C)CC4C3)nn2c1N(C)c1nc(-c2ccc(F)cc2)cs1` (stereo not shown) [Cpd 122, tert-butyl 5-(2-ethyl-3-((4-(4-fluorophenyl)thiazol-2-yl)(methyl)amino)imidazo[1,2-b]pyridazin-6-yl)hexahydro-pyrrolo[3,4-c] pyrrole-2(1H)-carboxylate] were above 1000 nM and 0.01 to 25 nM.
Taken in the same sequence, the figures for `CCc1nc2ccc(N3CC4CN(S(=O)(=O)CCCN(C)C)CC4C3)nn2c1N(C)c1nc(-c2ccc(F)cc2)cs1` (stereo not shown) [Cpd 126, N-(6-(5-(3-(dimethylamino)propylsulfonyl)hexahydropyrrolo [3,4-c]pyrrol-2(1H)-yl)-2-ethylimidazo[1,2-b]pyridazin-3-yl)-4-(4-fluorophenyl)-N-methylthiazol-2-amine] were 500 to 1000 nM and 0.01 to 25 nM.
On to `CCc1nc2ccc(N3CCN(CC(=O)NC(C)C)CC3)nn2c1N(C)c1nc(-c2ccc(F)cc2)cs1` [Cpd 54, 2-(4-(2-ethyl-3-((4-(4-fluorophenyl)thiazol-2-yl)(methyl)amino)imidazo[1,2-b]pyridazin-6-yl)piperazin-1-yl)-N-isopropylacetamide], for which the figures for the IC50 at hENPP2 [1] and on hENPP2 [2] were above 1000 nM and 0.01 to 25 nM, respectively.
Taken in the same sequence, the figures for `CCc1nc2cnc(N3CCN(CC(=O)NC)CC3)cn2c1N(C)c1nc(-c2ccc(F)cc2)c(C#N)s1` [Cpd 9, 2-(4-(3-((5-cyano-4-(4-fluorophenyl)thiazol-2-yl)(methyl)amino)-2-ethylimidazo[1,2-a]pyrazin-6-yl)piperazin-1-yl)-N-methylacetamide] were 500 to 1000 nM and 0.01 to 25 nM.
On to `CCc1nc2cnc(N3CCN(CC(=O)N4CCC4)CC3)cn2c1N(C)c1nc(-c2ccc(F)cc2)c(C#N)s1` [Cpd 4, 2-((6-(4-(2-(azetidin-1-yl)-2-oxoethyl)piperazin-1-yl)-2-ethylimidazo[1,2-a]pyrazin-3-yl)(methyl)amino)-4-(4-fluorophenyl) thiazole-5-carbonitrile], for which the IC50 against hENPP2 [1] was in the range of 100 to 500 nM; against hENPP2 [2] it was 0.01 to 25 nM.
Taken in the same sequence, the figures for `CCc1nc2ccc(N3CCC(S(=O)(=O)NC4CC4)CC3)nn2c1N(C)c1nc(-c2ccc(F)cc2)cs1` [Cpd 114, N-cyclopropyl-1-(2-ethyl-3-((4-(4-fluorophenyl)thiazol-2-yl)(methyl)amino)imidazo[1,2-b]pyridazin-6-yl)piperidine-4-sulfonamide] were above 1000 nM and 50 to 100 nM.
For the compound `CCc1nc2ccc(N3CCC(NC(=O)OC(C)(C)C)C3)nn2c1N(C)c1nc(-c2ccc(F)cc2)cs1` (stereo not shown) [Cpd 133, tert-butyl 1-(2-ethyl-3-((4-(4-fluorophenyl)thiazol-2-yl)(methyl)amino)imidazo[1,2-b]pyridazin-6-yl)pyrrolidin-3-ylcarbamate], the IC50 against hENPP2 [1] is above 1000 nM; against hENPP2 [2], 0.01 to 25 nM.
For `CCc1nc2ccc(N3CCC(NS(C)(=O)=O)C3)nn2c1N(C)c1nc(-c2ccc(F)cc2)cs1` (stereo not shown) [Cpd 137, N-(1-(2-ethyl-3-((4-(4-fluorophenyl)thiazol-2-yl)(methyl)amino)imidazo[1,2-b]pyridazin-6-yl)pyrrolidin-3-yl)methane-sulfonamide], the half-maximal inhibitory concentration (IC50) against hENPP2 [1] was above 1000 nM; against hENPP2 [2], 0.01 to 25 nM.
In the same order, the values of `CCc1nc2ccc(N3CCN(CCC(N)=O)CC3)nn2c1N(C)c1nc(-c2ccc(F)cc2)cs1` [Compound 52, 3-(4-(2-ethyl-3-((4-(4-fluorophenyl)thiazol-2-yl)(methyl)amino)imidazo[1,2-b]pyridazin-6-yl)piperazin-1-yl)propanamide] are 500 to 1000 nM and 0.01 to 25 nM.
Taken in the same sequence, the figures for `CCc1nc2ccc(N3CCN(S(C)(=O)=O)[C@H](CO)C3)nn2c1N(C)c1nc(-c2ccc(F)cc2)cs1` [Cpd 67, (S)-(4-(2-ethyl-3-((4-(4-fluorophenyl)thiazol-2-yl)(methyl)amino)imidazo[1,2-b]pyridazin-6-yl)-1-(methylsulfonyl)piperazin-2-yl)methanol] were 100 to 500 nM and 0.01 to 25 nM.
On to `CCc1nc2ccc(N3CC4CN(S(=O)(=O)CCCCl)CC4C3)nn2c1N(C)c1nc(-c2ccc(F)cc2)cs1` (stereo not shown) [Cpd 125, N-(6-(5-(3-chloropropyl-sulfonyl)-hexahydropyrrolo [3,4-c]pyrrol-2(1H)-yl)-2-ethylimidazo[1,2-b]pyridazin-3-yl)-4-(4-fluorophenyl)-N-methylthiazol-2-amine], for which the results for the IC50 at hENPP2 [1] and against hENPP2 [2] were above 1000 nM and 0.01 to 25 nM, respectively.
In the same order, the values of `CCc1nc2ccc(N3CCN(CC(=O)N4CCCC4)CC3)nn2c1N(C)c1nc(-c2ccc(F)cc2)cs1` [Cpd 55, 2-(4-(2-ethyl-3-((4-(4-fluorophenyl)thiazol-2-yl)(methyl)amino)imidazo[1,2-b]pyridazin-6-yl)piperazin-1-yl)-1-(pyrrolidin-1-yl)ethanone] are 100 to 500 nM and 0.01 to 25 nM.
As to `CCc1nc2ccc(N3CC(NC(=O)OC(C)(C)C)C3)nn2c1N(C)c1nc(-c2ccc(F)cc2)cs1` [Cpd 154, [1-(2-Ethyl-3-{[4-(4-fluoro-phenyl)-thiazol-2-yl]-methyl-amino}-imidazo[1,2-b]pyridazin-6-yl)-azetidin-3-yl]-carbamic acid tert-butyl ester], the IC50 against hENPP2 [1] is above 1000 nM; on hENPP2 [2], 0.01 to 25 nM.
Taken in the same sequence, the figures for `CCc1nc2ccc(N3CCCN(S(C)(=O)=O)CC3)nn2c1N(C)c1nc(-c2ccc(F)cc2)cs1` [Cpd 116, N-(2-ethyl-6-(4-(methylsulfonyl)-1,4-diazepan-1-yl)imidazo[1,2-b]pyridazin-3-yl)-4-(4-fluorophenyl)-N-methylthiazol-2-amine] were above 1000 nM and 0.01 to 25 nM.
Taken in the same sequence, the figures for `CCc1nc2ccc(N3CCN(CC(=O)N4CC(O)C4)CC3)nn2c1N(C)c1nc(-c2ccc(F)cc2)cs1` [Cpd 26] were 100 to 500 nM and 0.01 to 25 nM.
Taken in the same sequence, the figures for `CCc1nc2ccc(N3CCCC3CO)nn2c1N(C)c1nc(-c2ccc(F)cc2)cs1` (stereo not shown) [Cpd 142, (1-(2-ethyl-3-((4-(4-fluorophenyl)thiazol-2-yl)(methyl)amino)imidazo[1,2-b]pyridazin-6-yl)pyrrolidin-2-yl)methanol] were above 1000 nM and 0.01 to 25 nM.
In the case of `CCc1nc2ccc(N3CCCC(CN)C3)nn2c1N(C)c1nc(-c2ccc(F)cc2)cs1` (stereo not shown) [Cpd 101, N-(6-(3-(aminomethyl)piperidin-1-yl)-2-ethylimidazo[1,2-b]pyridazin-3-yl)-4-(4-fluorophenyl)-N-methylthiazol-2-amine], the IC50 against hENPP2 [1] is above 1000 nM; against hENPP2 [2], 25 to 50 nM.
In the same order, the values of `CCc1nc2ccc(N3CCN(CC4CCCO4)CC3)nn2c1N(C)c1nc(-c2ccc(F)cc2)cs1` (stereo not shown) [Cpd 48, N-(2-ethyl-6-(4-((tetrahydrofuran-2-yl)methyl)piperazin-1-yl)imidazo[1,2-b]pyridazin-3-yl)-4-(4-fluorophenyl)-N-methylthiazol-2-amine] are 100 to 500 nM and 0.01 to 25 nM.
